Results reported in the supplement of paper PMC10307832.

Tests used:
Assay in all cases: relative viability (nuclei count vs DMSO), 5 days (fraction); higher = more cells survive
[1] = compound: CC[C@H](C)N1C=C(C2=C(C=C(C=C21)C3=CN=C(C=C3)N4CCNCC4)C(=O)NCC5=C(C=C(NC5=O)C)C)C [GSK126] + Nc1nc2[nH]cc(CCc3ccc(C(=O)N[C@@H](CCC(=O)O)C(=O)O)cc3)c2c(=O)[nH]1 [Pemetrexed] (partner 0.2 µM)
Outline: (§1)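 Lung cancer cell lines in 1536-well plates got either a single drug or a fixed anchor-drug dose together with five library-drug doses (not always all listed) in √10 steps, by pin tool, on the day after seeding. Nuclei were counted after 5 days, and relative viability is the treated-to-vehicle ratio of nuclei counts. Values are medians of duplicate plates.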

[2] = compound: C1CC(C1)(C(=O)O)C(=O)O.[NH2-].[NH2-].[Pt+2] [Carboplatin] + Cc1cc(Nc2cc(N3CCN(C)CC3)nc(Sc3ccc(NC(=O)C4CC4)cc3)n2)n[nH]1 [Tozasertib] (partner 0.1 µM)
Outline: as §1

[3] = compound: NS(=O)(=O)OC[C@@H]1C[C@@H](n2ccc3c(N[C@H]4CCc5ccccc54)ncnc32)C[C@@H]1O [MLN4924] + Cc1nc(Nc2ncc(C(=O)Nc3c(C)cccc3Cl)s2)cc(N2CCN(CCO)CC2)n1 [Dasatinib] (partner 0.075 µM)
Outline: as §1

[4] = compound: CC[C@H](C)N1C=C(C2=C(C=C(C=C21)C3=CN=C(C=C3)N4CCNCC4)C(=O)NCC5=C(C=C(NC5=O)C)C)C [GSK126] + CC(=O)Nc1cccc(-n2c(=O)n(C3CC3)c(=O)c3c(Nc4ccc(I)cc4F)n(C)c(=O)c(C)c32)c1 [Trametinib] (partner 0.02 µM)
Outline: as §1

NCI-H2405
relative viability ([1]; first compound 0.08 µM): 1.01
relative viability ([1]; first compound 0.253 µM): 0.993
relative viability ([1]; first compound 0.8 µM): 0.994
relative viability ([1]; first compound 2.53 µM): 1.09
relative viability ([1]; first compound 8 µM): 0.94
relative viability ([2]; first compound 0.08 µM): 0.786
relative viability ([2]; first compound 0.253 µM): 0.779
relative viability ([2]; first compound 0.8 µM): 0.688
relative viability ([2]; first compound 2.53 µM): 0.682
relative viability ([2]; first compound 8 µM): 0.768
relative viability ([3]; first compound 0.04 µM): 0.39
relative viability ([3]; first compound 0.1265 µM): 0.491
relative viability ([3]; first compound 0.4 µM): 0.428
relative viability ([3]; first compound 1.265 µM): 0.242
relative viability ([3]; first compound 4 µM): 0.205
relative viability ([4]; first compound 0.08 µM): 0.817
relative viability ([4]; first compound 0.253 µM): 0.587
relative viability ([4]; first compound 0.8 µM): 0.611
relative viability ([4]; first compound 2.53 µM): 0.614
relative viability ([4]; first compound 8 µM): 0.636

NCI-H3122
relative viability ([1]; first compound 0.08 µM): 0.203
relative viability ([1]; first compound 0.253 µM): 0.208
relative viability ([1]; first compound 0.8 µM): 0.185
relative viability ([1]; first compound 2.53 µM): 0.204
relative viability ([1]; first compound 8 µM): 0.209
relative viability ([2]; first compound 0.08 µM): 0.371
relative viability ([2]; first compound 0.253 µM): 0.336
relative viability ([2]; first compound 0.8 µM): 0.381
relative viability ([2]; first compound 2.53 µM): 0.329
relative viability ([2]; first compound 8 µM): 0.411
relative viability ([3]; first compound 0.04 µM): 0.148
relative viability ([3]; first compound 0.1265 µM): 0.487
relative viability ([3]; first compound 0.4 µM): 0.147
relative viability ([3]; first compound 1.265 µM): 0.056
relative viability ([3]; first compound 4 µM): 0.071
relative viability ([4]; first compound 0.08 µM): 0.198
relative viability ([4]; first compound 0.253 µM): 0.186
relative viability ([4]; first compound 0.8 µM): 0.216
relative viability ([4]; first compound 2.53 µM): 0.22
relative viability ([4]; first compound 8 µM): 0.245

PC-3 [JPC-3]
relative viability ([1]; first compound 0.08 µM): 1.15
relative viability ([1]; first compound 0.253 µM): 1.04
relative viability ([1]; first compound 0.8 µM): 1.08
relative viability ([1]; first compound 2.53 µM): 1.22
relative viability ([1]; first compound 8 µM): 1.08
relative viability ([2]; first compound 0.08 µM): 0.863
relative viability ([2]; first compound 0.253 µM): 0.877
relative viability ([2]; first compound 0.8 µM): 0.863
relative viability ([2]; first compound 2.53 µM): 0.853
relative viability ([2]; first compound 8 µM): 0.765
relative viability ([3]; first compound 0.04 µM): 1.04
relative viability ([3]; first compound 0.1265 µM): 1.09
relative viability ([3]; first compound 0.4 µM): 0.897
relative viability ([3]; first compound 1.265 µM): 0.36
relative viability ([3]; first compound 4 µM): 0.27
relative viability ([4]; first compound 0.08 µM): 0.763
relative viability ([4]; first compound 0.253 µM): 0.694
relative viability ([4]; first compound 0.8 µM): 0.693
relative viability ([4]; first compound 2.53 µM): 0.66
relative viability ([4]; first compound 8 µM): 0.634

PC-14
relative viability ([1]; first compound 0.08 µM): 0.131
relative viability ([1]; first compound 0.253 µM): 0.133
relative viability ([1]; first compound 0.8 µM): 0.135
relative viability ([1]; first compound 2.53 µM): 0.155
relative viability ([1]; first compound 8 µM): 0.148
relative viability ([2]; first compound 0.08 µM): 0.553
relative viability ([2]; first compound 0.253 µM): 0.582
relative viability ([2]; first compound 0.8 µM): 0.443
relative viability ([2]; first compound 2.53 µM): 0.314
relative viability ([2]; first compound 8 µM): 0.202
relative viability ([3]; first compound 0.04 µM): 0.304
relative viability ([3]; first compound 0.1265 µM): 0.294
relative viability ([3]; first compound 0.4 µM): 0.195
relative viability ([3]; first compound 1.265 µM): 0.0356
relative viability ([3]; first compound 4 µM): 0.0313
relative viability ([4]; first compound 0.08 µM): 0.912
relative viability ([4]; first compound 0.253 µM): 0.694
relative viability ([4]; first compound 0.8 µM): 0.708
relative viability ([4]; first compound 2.53 µM): 0.662
relative viability ([4]; first compound 8 µM): 0.699

RERF-LC-KJ
relative viability ([1]; first compound 0.08 µM): 0.462
relative viability ([1]; first compound 0.253 µM): 0.465
relative viability ([1]; first compound 0.8 µM): 0.443
relative viability ([1]; first compound 2.53 µM): 0.462
relative viability ([1]; first compound 8 µM): 0.461
relative viability ([2]; first compound 0.08 µM): 0.553
relative viability ([2]; first compound 0.253 µM): 0.471
relative viability ([2]; first compound 0.8 µM): 0.483
relative viability ([2]; first compound 2.53 µM): 0.406
relative viability ([2]; first compound 8 µM): 0.386
relative viability ([3]; first compound 0.04 µM): 0.717
relative viability ([3]; first compound 0.1265 µM): 0.661
relative viability ([3]; first compound 0.4 µM): 0.266
relative viability ([3]; first compound 1.265 µM): 0.206
relative viability ([3]; first compound 4 µM): 0.242
relative viability ([4]; first compound 0.08 µM): 0.902
relative viability ([4]; first compound 0.253 µM): 0.981
relative viability ([4]; first compound 0.8 µM): 0.733
relative viability ([4]; first compound 2.53 µM): 0.841
relative viability ([4]; first compound 8 µM): 0.825

SK-LU-1
relative viability ([1]; first compound 0.08 µM): 1.06
relative viability ([1]; first compound 0.253 µM): 0.938
relative viability ([1]; first compound 0.8 µM): 0.956
relative viability ([1]; first compound 2.53 µM): 0.953
relative viability ([1]; first compound 8 µM): 1.06
relative viability ([2]; first compound 0.08 µM): 0.366
relative viability ([2]; first compound 0.253 µM): 0.293
relative viability ([2]; first compound 0.8 µM): 0.341
relative viability ([2]; first compound 2.53 µM): 0.346
relative viability ([2]; first compound 8 µM): 0.275
relative viability ([3]; first compound 0.04 µM): 0.217
relative viability ([3]; first compound 0.1265 µM): 0.249
relative viability ([3]; first compound 0.4 µM): 0.12
relative viability ([3]; first compound 1.265 µM): 0.117
relative viability ([3]; first compound 4 µM): 0.141
relative viability ([4]; first compound 0.08 µM): 0.519
relative viability ([4]; first compound 0.253 µM): 0.524
relative viability ([4]; first compound 0.8 µM): 0.485
relative viability ([4]; first compound 2.53 µM): 0.816
relative viability ([4]; first compound 8 µM): 0.486

SK-MES-1
relative viability ([1]; first compound 0.08 µM): 1.01
relative viability ([1]; first compound 0.253 µM): 0.996
relative viability ([1]; first compound 0.8 µM): 0.979
relative viability ([1]; first compound 2.53 µM): 0.941
relative viability ([1]; first compound 8 µM): 1.09
relative viability ([2]; first compound 0.08 µM): 0.812
relative viability ([2]; first compound 0.253 µM): 0.938
relative viability ([2]; first compound 0.8 µM): 0.925
relative viability ([2]; first compound 2.53 µM): 0.922
relative viability ([2]; first compound 8 µM): 0.843
relative viability ([3]; first compound 0.04 µM): 0.584
relative viability ([3]; first compound 0.1265 µM): 0.626
relative viability ([3]; first compound 0.4 µM): 0.256
relative viability ([3]; first compound 1.265 µM): 0.121
relative viability ([3]; first compound 4 µM): 0.147
relative viability ([4]; first compound 0.08 µM): 0.573
relative viability ([4]; first compound 0.253 µM): 0.6
relative viability ([4]; first compound 0.8 µM): 0.539
relative viability ([4]; first compound 2.53 µM): 0.491
relative viability ([4]; first compound 8 µM): 0.515

SW 900
relative viability ([1]; first compound 0.08 µM): 0.498
relative viability ([1]; first compound 0.253 µM): 0.45
relative viability ([1]; first compound 0.8 µM): 0.463
relative viability ([1]; first compound 2.53 µM): 0.46
relative viability ([1]; first compound 8 µM): 0.493
relative viability ([2]; first compound 0.08 µM): 0.682
relative viability ([2]; first compound 0.253 µM): 0.479
relative viability ([2]; first compound 0.8 µM): 0.56
relative viability ([2]; first compound 2.53 µM): 0.399
relative viability ([2]; first compound 8 µM): 0.314
relative viability ([3]; first compound 0.04 µM): 0.51
relative viability ([3]; first compound 0.1265 µM): 0.433
relative viability ([3]; first compound 0.4 µM): 0.576
relative viability ([3]; first compound 1.265 µM): 0.294
relative viability ([3]; first compound 4 µM): 0.139
relative viability ([4]; first compound 0.08 µM): 0.801
relative viability ([4]; first compound 0.253 µM): 0.507
relative viability ([4]; first compound 0.8 µM): 0.86
relative viability ([4]; first compound 2.53 µM): 0.901
relative viability ([4]; first compound 8 µM): 0.615

SW 1573
relative viability ([1]; first compound 0.08 µM): 0.945
relative viability ([1]; first compound 0.253 µM): 0.981
relative viability ([1]; first compound 0.8 µM): 0.934
relative viability ([1]; first compound 2.53 µM): 1.08
relative viability ([1]; first compound 8 µM): 0.877
relative viability ([2]; first compound 0.08 µM): 0.2
relative viability ([2]; first compound 0.253 µM): 0.191
relative viability ([2]; first compound 0.8 µM): 0.19
relative viability ([2]; first compound 2.53 µM): 0.173
relative viability ([2]; first compound 8 µM): 0.207
relative viability ([3]; first compound 0.04 µM): 0.697
relative viability ([3]; first compound 0.1265 µM): 0.634
relative viability ([3]; first compound 0.4 µM): 0.247
relative viability ([3]; first compound 1.265 µM): 0.0507
relative viability ([3]; first compound 4 µM): 0.0578
relative viability ([4]; first compound 0.08 µM): 0.57
relative viability ([4]; first compound 0.253 µM): 0.618
relative viability ([4]; first compound 0.8 µM): 0.596
relative viability ([4]; first compound 2.53 µM): 0.587
relative viability ([4]; first compound 8 µM): 0.622
